# According to ChEMBL document CHEMBL1201862, “PubChem BioAssay data set” (2004):
# Activity calls are given as the source filed them.
# Key:
# [1] = molecular target: T1, Polyadenylate-binding protein 1 (Homo sapiens, UniProt P11940); test: MLLE binding blockers, Cy5 peptide tracer – biochemical, fluorescence polarization, Cy5-PAM2 peptide, secondary, miRNA deadenylation inhibitor project, dose response (AID 602260); type: functional; settings: read-out: IC50_Mean
# [2] = molecular target: T1, Polyadenylate-binding protein 1; test: MLLE domain peptide-binding blockers, IC50 – biochemical, fluorescence polarization, FITC-PAM2 peptide, dose response (AID 602259); type: functional; settings: read-out: IC50_Mean
# [3] = molecular target: T2, RNA-binding protein pos-1 (Caenorhabditis elegans, UniProt G5EF15); test: disruptors of C. elegans POS-1 RNA interaction – biochemical, fluorescence polarization, dose response (AID 1964);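 note: purified POS-1 fused to maltose binding protein made in E. coli; potency of compounds blocking POS-1 binding to fluorescent RNA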
# T2 sequence (G5EF15 whole entry): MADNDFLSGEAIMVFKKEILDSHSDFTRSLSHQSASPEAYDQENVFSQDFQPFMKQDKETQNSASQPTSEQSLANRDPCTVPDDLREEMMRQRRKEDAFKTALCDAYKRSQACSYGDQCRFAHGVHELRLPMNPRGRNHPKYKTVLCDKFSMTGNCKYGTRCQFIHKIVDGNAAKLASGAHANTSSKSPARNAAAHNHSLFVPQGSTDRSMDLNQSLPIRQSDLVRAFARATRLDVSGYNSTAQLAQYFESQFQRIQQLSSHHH
# [4] = molecular target: T3, Zinc finger protein mex-5 (Caenorhabditis elegans, UniProt Q9XUB2); test: potency of MEX-5 RNA-binding blockers – biochemical, C. elegans, fluorescence polarization, dose response (AID 1960)
# T3 sequence (Q9XUB2 whole entry): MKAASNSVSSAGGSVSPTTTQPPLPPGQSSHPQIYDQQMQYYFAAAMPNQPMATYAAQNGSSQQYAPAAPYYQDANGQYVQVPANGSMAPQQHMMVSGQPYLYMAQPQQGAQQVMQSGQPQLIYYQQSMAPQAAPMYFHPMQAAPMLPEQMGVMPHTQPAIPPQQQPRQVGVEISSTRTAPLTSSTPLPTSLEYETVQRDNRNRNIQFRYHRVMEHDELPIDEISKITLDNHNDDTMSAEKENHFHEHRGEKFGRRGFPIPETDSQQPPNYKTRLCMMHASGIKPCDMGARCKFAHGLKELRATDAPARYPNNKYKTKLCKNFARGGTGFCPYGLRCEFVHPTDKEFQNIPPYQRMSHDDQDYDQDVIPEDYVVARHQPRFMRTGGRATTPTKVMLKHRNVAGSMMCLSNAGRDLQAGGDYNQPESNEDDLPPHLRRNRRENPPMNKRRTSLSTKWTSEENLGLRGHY
# Protein skinhead-1 = molecular target: T4, Protein skinhead-1 (Caenorhabditis elegans, UniProt P34707); type: functional
# T4 sequence (P34707 whole entry): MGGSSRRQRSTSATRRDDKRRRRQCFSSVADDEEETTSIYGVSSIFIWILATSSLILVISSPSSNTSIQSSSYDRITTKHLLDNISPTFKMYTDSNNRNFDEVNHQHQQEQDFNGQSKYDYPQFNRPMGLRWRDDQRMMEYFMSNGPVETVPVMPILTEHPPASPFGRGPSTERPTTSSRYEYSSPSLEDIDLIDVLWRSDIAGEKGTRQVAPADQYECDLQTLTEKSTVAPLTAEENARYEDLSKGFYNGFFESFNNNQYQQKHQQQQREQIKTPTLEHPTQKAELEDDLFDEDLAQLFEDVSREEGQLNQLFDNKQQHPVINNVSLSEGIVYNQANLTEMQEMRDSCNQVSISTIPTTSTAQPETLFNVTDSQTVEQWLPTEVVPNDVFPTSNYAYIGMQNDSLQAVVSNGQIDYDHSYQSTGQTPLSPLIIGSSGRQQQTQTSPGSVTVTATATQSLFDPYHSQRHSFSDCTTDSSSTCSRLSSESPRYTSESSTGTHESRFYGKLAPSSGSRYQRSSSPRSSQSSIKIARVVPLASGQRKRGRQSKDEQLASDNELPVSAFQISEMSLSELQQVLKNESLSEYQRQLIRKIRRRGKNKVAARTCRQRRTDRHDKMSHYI
# [5] = A cytotoxicity screen of small molecule inhibitors of the PhoP region in Salmonella typhi identified in the primary screen. [Related pubchem assays: 1850, 1864, 1985 ]; type: functional
# [6] = tested on: Streptococcus sp. 'group A'; test: Streptococcus pyogenes SK(-)GAS viability under kanamycin – luminescence, BacTiterGlo, confirmation, counter-screen for streptokinase expression inhibitor project, dose response (AID 1900); type: functional, organism-based
# Streptococcus = test: GAS UMAA2166 growth inhibition – luminescence, BacTiterGlo, counter-screen for streptokinase expression inhibitor project, dose response (AID 1915); type: functional, organism-based;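 note: potency for reduction of bacterial viability or growth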
# [7] = microbe, parasite or virus in culture; type: functional; settings: Mycobacterium tuberculosis
# [8] = Luminescence Cell-Based Dose Retest to Confirm Inhibitors of Cancer Stem Cells. [Related pubchem assays (depositor defined):AID2717, AID2721]; type: functional; settings: Homo sapiens
# Streptokinase A = molecular target: T5, Streptokinase A (Streptococcus pyogenes serotype M1, UniProt P10520); test: viability-normalized secreted streptokinase activity reduction – plasminogen activation absorbance, OD405, dose response (AID 1914); type: functional, Streptococcus pyogenes M1 GAS;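 note: secreted streptokinase activity via plasminogen activation per viability signal from cell pellet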
# T5 sequence (P10520 whole entry): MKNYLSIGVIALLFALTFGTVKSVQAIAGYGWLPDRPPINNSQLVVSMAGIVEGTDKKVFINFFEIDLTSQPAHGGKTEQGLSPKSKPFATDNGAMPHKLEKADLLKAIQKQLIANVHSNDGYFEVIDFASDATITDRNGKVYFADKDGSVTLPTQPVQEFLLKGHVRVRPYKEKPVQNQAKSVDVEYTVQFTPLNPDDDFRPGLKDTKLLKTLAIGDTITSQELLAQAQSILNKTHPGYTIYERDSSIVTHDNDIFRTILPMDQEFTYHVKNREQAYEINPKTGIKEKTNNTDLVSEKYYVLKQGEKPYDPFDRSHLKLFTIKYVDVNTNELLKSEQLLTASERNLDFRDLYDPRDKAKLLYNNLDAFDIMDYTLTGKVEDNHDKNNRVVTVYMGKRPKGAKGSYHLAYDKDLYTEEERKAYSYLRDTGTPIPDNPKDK
# cells = type: functional
# [9] = non-specific 3'UTR reporter inhibition in Clone20-Shn3RL – cell-based, Renilla luciferase, cherry-picked, counter-screen for Shn3 inhibitor project, dose response (AID 624133); type: functional
# [10] = NIH3T3 cell viability loss – ATP luminescence, mouse fibroblasts, counter-screen, dose response (AID 2010); type: functional, cell-based;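 note: cells exposed to compound for about 90 hours before reading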
# [11] = Luminescence Cell-Based Dose Response HTS to Identify Activators of Luciferase Translation or Activity in H4 […] Cells. [Related pubchem assays: 1829 (Project Summary), 1814 (Primary HTS)]; type: functional
# [12] = Luminescence Cell-Based Dose Confirmation HTS to Identify Activators of 5'UTR Stem-Loop Driven Alpha-Synuclein mRNA Translation in H4 Neuroglioblastoma Cells. [Related pubchem assays: 1829 (Project Summary), 1814 (Primary HTS)]; type: functional
# INS1 = test: INS-1E survival protection against cytokine death – cell-based, luminescence, retest, dose response (AID 449756); type: functional; settings: Rattus norvegicus;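 note: cell death triggered by IL-1 beta plus TNF-alpha plus IFN-gamma mixture; protective hits raise ATP signal compared with cytokine alone wells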
# H4 = test: Luminescence Cell-Based Dose Response HTS to Identify Activators of 5'UTR Stem-Loop Driven Prion Protein mRNA Translation in H4 Neuroglioblastoma Cells. [Related pubchem assays: 1829 (Project Summary), 1814 (Primary HTS)]; type: functional; settings: Homo sapiens
# [13] = Trypanosoma cruzi growth suppression in host cells – NIH3T3 host cells, beta-gal luminescence, confirmation (AID 2044); type: functional, cell-based;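 note: intracellular parasites grown in NIH/3T3 mouse fibroblasts as host cells; luminescent beta-galactosidase reporter signal from transgenic T. cruzi replicating inside host cells; inhibitors lower the luminescence signal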
# [14] = reduction of Shn3 3'UTR-driven luciferase in osteoblasts – cell-based, Clone20 osteoblasts, firefly luciferase, cherry-picked, dose response (AID 624132); type: functional;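 note: firefly luciferase luminescence from reporter carrying the Shn3 3'UTR in osteoblasts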
# Paired box protein Pax-8 = Paired box protein Pax-8 (Homo sapiens, UniProt Q06710); test: PAX8 transcriptional activity inhibition in RMG-I – RMG-I cells, luciferase, cherry-pick, dose response (AID 687027); type: functional, cell-based;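 note: luciferase reporter driven by Pax8 target thyroperoxidase promoter measured by SteadyGlo luminescence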
# [15] = intracellular Trypanosoma cruzi inhibitors in host cells – cell-based, plate reader, cherry-pick samples, set 3, dose response (AID 651818); type: functional;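 note: compounds incubated with infected cells for about four days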
# T1 sequence (P11940 whole entry, the tested form may be a part): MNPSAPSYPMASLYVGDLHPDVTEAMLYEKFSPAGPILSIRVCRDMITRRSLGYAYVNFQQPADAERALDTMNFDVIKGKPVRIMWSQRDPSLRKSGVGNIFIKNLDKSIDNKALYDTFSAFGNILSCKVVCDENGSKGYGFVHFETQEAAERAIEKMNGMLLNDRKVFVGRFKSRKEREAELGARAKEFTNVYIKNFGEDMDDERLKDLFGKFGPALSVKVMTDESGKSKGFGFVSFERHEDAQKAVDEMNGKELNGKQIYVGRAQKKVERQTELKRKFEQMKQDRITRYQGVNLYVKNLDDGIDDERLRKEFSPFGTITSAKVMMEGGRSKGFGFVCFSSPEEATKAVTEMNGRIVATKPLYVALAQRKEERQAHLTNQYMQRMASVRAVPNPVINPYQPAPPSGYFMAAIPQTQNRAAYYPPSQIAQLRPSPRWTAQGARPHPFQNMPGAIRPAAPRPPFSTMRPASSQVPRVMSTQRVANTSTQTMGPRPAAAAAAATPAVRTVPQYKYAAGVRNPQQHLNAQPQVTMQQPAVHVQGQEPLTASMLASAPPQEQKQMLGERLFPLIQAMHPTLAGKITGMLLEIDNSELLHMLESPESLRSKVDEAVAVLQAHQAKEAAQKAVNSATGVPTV
# Chain of Paired box protein Pax-8 (Q06710 whole entry): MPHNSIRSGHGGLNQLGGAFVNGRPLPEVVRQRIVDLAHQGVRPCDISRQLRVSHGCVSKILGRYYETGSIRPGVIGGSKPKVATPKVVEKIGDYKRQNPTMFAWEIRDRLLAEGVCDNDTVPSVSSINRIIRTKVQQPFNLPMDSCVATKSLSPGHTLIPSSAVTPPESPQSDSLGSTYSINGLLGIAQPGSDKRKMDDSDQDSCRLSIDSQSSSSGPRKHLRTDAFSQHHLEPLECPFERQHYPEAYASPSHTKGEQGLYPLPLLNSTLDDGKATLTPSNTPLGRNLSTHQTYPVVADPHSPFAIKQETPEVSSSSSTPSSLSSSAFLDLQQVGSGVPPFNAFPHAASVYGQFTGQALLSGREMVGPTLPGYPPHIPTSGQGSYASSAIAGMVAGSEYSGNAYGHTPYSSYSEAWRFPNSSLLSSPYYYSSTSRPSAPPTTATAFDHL
compound,measurement,setting,value
c1ccc(C2=NNC(c3ccccn3)=NN2)nc1,IC50,[1],> 66 µM (inactive)
same,IC50,[2],> 66 µM (inactive)
same,EC50,[3],25.3 µM (active)
same,EC50,[4],22.4 µM (active)
C[C@@]12C(=O)N(Cc3ccc(-c4ccccc4)cc3)CC(=O)N1[C@H](/C=C/c1ccccc1)[C@@H]1C(=O)N(c3ccccc3)C(=O)[C@@H]12,IC50,Protein skinhead-1,> 100 µM (inactive)
O=C(Nc1ccc(Cl)cc1)NC1CCCCNC1=O (centres undefined),IC50,Protein skinhead-1,> 100 µM (inactive)
CC(=O)NCCn1c(C)cc2ccccc21,IC50,Protein skinhead-1,> 100 µM (inactive)
CC(c1ccccc1)(c1ccccc1)c1ccncc1,EC50,[5],> 50 µM (active)
O=C(CCn1c(=O)c2ccccc2n(CC(=O)NCCC2=CCCCC2)c1=O)NCc1ccco1,IC50,Protein skinhead-1,> 100 µM (inactive)
Clc1c(-c2ccccc2)nnn1-c1ccccc1,IC50,Protein skinhead-1,> 100 µM (inactive)
CCOC(=O)c1c(N2C(=O)CC(Sc3ccccc3C(=O)O)C2=O)sc2c1CCCC2 (centres undefined),IC50,[1],> 66 µM (inactive)
same,IC50,[2],> 66 µM (inactive)
N#C/C(=C(/O)c1ccco1)c1nc2ccccc2s1,EC50,[5],> 50 µM (active)
COc1ccc(S(=O)(=O)N2CN3CCN(C3)C2)cc1,EC50,[5],> 50 µM (active)
NC(=O)c1ccc[n+](CC(=O)c2cccc([N+](=O)[O-])c2)c1,EC50,[5],> 50 µM (active)
COc1cc(C(=O)NC(=S)Nc2ccc(NC(=O)c3ccco3)cc2)cc(OC)c1OC,IC50,[1],> 66 µM (inactive)
same,IC50,[2],> 66 µM (inactive)
same,EC50,[6],14.8 µM (active)
same,EC50,Streptococcus,7.42 µM (active)
COc1nc(-c2ccccc2)cc(-c2ccc(OC)c(OC)c2)n1,CC50,[7],> 40 µM (active)
CN1CCN(C2=Cc3ccc(Cl)cc3Sc3ccc(F)cc32)CC1,EC50,[6],7.12 µM (active)
same,CC50,[7],33.1 µM (active)
same,EC50,Streptococcus,7.8 µM (active)
same,AC50,[8],6.81 µM (active)
CC(C)Oc1ccc(C(=O)NC2=NCCS2)cc1,IC50,[1],> 66 µM (inactive)
same,IC50,[2],> 66 µM (inactive)
Sc1nc2ccccc2c2nc(-c3ccccc3)nn12,EC50,[6],5.84 µM (active)
same,EC50,Streptokinase A,> 150 µM (not active)
same,CC50,[7],35.2 µM (active)
same,EC50,Streptococcus,> 150 µM (not active)
COC(=O)C(O)(c1ccc(NC(=S)NC(=O)c2ccccc2)cc1)C(F)(F)F (centres undefined),IC50,cells,39.6 µM (active)
Cc1ccc[n+](-c2[nH]c(=O)sc2C=NNC(=O)c2ccccc2[O-])c1,IC50,[1],> 66 µM (inactive)
same,IC50,[2],43.9 µM (inactive)
same,EC50,[3],42.4 µM (active)
same,EC50,[4],38.5 µM (active)
O=C(NC(=S)Nc1ncccn1)c1ccccc1Br,IC50,[1],> 66 µM (inactive)
same,IC50,[2],> 66 µM (inactive)
Brc1ccc(-c2nnc(-c3ccccc3)o2)o1,IC50,Protein skinhead-1,> 100 µM (inactive)
CCCCCCC#Cc1ccc2c(c1)COc1c3ccccc3nn1-2,AC50,[9],7.68 µM (active)
COc1ccc(-c2ccc(OC)c([C@H]3[C@@H]4C=CCC[C@@]4(C)C(=O)N3Cc3ccccc3)c2)cc1OC,CC50,[7],> 40 µM (active)
COc1ccc(CNc2[nH]cnc3c4cc(OC)c(OC)cc4nc2-3)cc1,CC50,[7],> 40 µM (active)
COc1ccccc1C1CC(c2cccc(NS(C)(=O)=O)c2)=NN1S(=O)(=O)c1ccccc1 (centres undefined),IC50,Protein skinhead-1,> 100 µM (inactive)
CCCN1CCc2nc(S)nc(O)c2C1,IC50,[1],> 66 µM (inactive)
same,IC50,[2],> 66 µM (inactive)
CC1CC(C)CN(C(=O)COC(=O)c2ccc([N+](=O)[O-])o2)C1 (centres undefined),IC50,cells,14.7 µM (active)
Cc1ccc(NC(S)=NCc2cccs2)cc1,EC50,[5],> 50 µM (active)
O=[N+]([O-])c1ccc(-c2cnc(NO)nc2)cc1,EC50,[5],> 50 µM (active)
Cc1cccc(N2CCN(C(=O)CCN3C(S)=NC(C)(C)CC3C)CC2)c1C (centres undefined),EC50,[5],> 50 µM (active)
Cc1nc(NC(=O)C23CC4CC(CC(C4)C2)C3)sc1Cc1ccc2c(c1)OCO2,EC50,[10],> 60 µM (not active)
same,EC50,[11],6.33 µM (active)
same,EC50,[12],15.8 µM (active)
same,AC50,INS1,14.1 µM (active)
same,EC50,H4,8.65 µM (active)
same,EC50,[13],0.844 µM (active)
CCC(C)(O)C(=O)OC1C(=O)OC2CC3C(C)=CC(=O)C(O)C3(C)C3C4(O)OCC23C1C(C)C4O (centres undefined),AC50,[9],5.79 µM (active)
same,AC50,[14],0.866 µM (active)
same,AC50,Paired box protein Pax-8,0.426 µM (active)
CC1(C)c2ccccc2C(=O)c2ccccc21,IC50,Protein skinhead-1,24 µM (active)
C[C@H](CO)N1C[C@H](C)[C@@H](CN(C)Cc2ccc(C(=O)Nc3ccccc3N)cc2)Oc2c(NC(=O)c3ccc(-c4nccs4)cc3)cccc2C1=O,AC50,[15],2.85 µM (active)
C[C@@H]1CN([C@@H](C)CO)C(=O)Cc2cc(NC(=O)Nc3ccc4c(c3)OCO4)ccc2O[C@@H]1CN(C)Cc1ccc(-c2ccccc2)cc1,AC50,[15],4.26 µM (active)
C[C@H]1CN([C@@H](C)CO)C(=O)c2cccc(NS(=O)(=O)c3ccc(F)cc3)c2O[C@H]1CN(C)Cc1ccc(C(=O)Nc2ccccc2N)cc1,AC50,[15],3.43 µM (active)
C[C@H]1CN([C@@H](C)CO)C(=O)Cc2cc(NC(=O)Nc3ccc(C(F)(F)F)cc3)ccc2O[C@@H]1CN(C)Cc1ccc(-c2ccccc2)cc1,AC50,[15],3.1 µM (active)
Cc1ccc(S(=O)(=O)N(C)C[C@@H]2Oc3c(NC(=O)Nc4ccc(C(F)(F)F)cc4)cccc3C(=O)N([C@H](C)CO)C[C@@H]2C)cc1,AC50,[15],5.16 µM (active)
O=C(N/N=C/c1cc(Cl)cc([N+](=O)[O-])c1O)C1CC1,EC50,[5],> 50 µM (active)
